# Activity calls are given as the source filed them. The calls are words filed in the database; no cut-off is given here.
# Tests used:
# RNA demethylase ALKBH5 [1] = target: T1, RNA demethylase ALKBH5 (Homo sapiens, UniProt Q6P6C2); test: Inhibition of ALKBH5 (66 to 292 residues)(unknown origin) expressed in Escherichia coli BL21(DE3) using 5'-ATTGTCA(m6A)CAGCAGA-FAM-3' as substrate incubated for 30 mins by FP assay
# Target sequence in this assay (Q6P6C2 whole entry, the tested form may be a part): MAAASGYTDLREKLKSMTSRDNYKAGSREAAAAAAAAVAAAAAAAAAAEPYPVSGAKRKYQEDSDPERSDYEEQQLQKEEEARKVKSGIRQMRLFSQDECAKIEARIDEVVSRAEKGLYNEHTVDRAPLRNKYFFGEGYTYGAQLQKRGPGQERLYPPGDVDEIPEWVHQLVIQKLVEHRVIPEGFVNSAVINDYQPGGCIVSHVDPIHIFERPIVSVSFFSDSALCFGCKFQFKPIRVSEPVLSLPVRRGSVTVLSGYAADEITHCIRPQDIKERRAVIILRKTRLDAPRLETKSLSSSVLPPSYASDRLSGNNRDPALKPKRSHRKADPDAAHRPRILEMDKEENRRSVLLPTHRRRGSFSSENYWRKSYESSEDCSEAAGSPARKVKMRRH
# [2] = target: T2, Alpha-ketoglutarate-dependent dioxygenase FTO (Homo sapiens, UniProt Q9C0B1); test: Inhibition of FTO (32 to 505 residues)(unknown origin) expressed in Escherichia coli BL21(DE3) by FP assay
# Target sequence in this assay (Q9C0B1 whole entry, the tested form may be a part): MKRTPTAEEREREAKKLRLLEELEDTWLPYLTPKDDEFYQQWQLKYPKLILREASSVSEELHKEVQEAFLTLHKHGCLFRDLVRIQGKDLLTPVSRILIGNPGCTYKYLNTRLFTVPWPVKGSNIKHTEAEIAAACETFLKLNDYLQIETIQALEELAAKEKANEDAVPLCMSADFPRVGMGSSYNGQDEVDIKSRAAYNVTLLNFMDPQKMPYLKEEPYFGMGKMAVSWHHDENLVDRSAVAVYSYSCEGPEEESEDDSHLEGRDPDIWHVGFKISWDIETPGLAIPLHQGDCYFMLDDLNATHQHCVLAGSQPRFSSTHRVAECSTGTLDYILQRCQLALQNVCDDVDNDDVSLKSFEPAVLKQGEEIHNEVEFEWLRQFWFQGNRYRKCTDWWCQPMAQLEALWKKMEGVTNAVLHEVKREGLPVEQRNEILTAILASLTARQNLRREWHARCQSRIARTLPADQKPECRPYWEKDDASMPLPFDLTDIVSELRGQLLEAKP
# RNA demethylase ALKBH5 [3] = target: T1, RNA demethylase ALKBH5; test: Binding affinity to NT-647-NHS fluorescent dye-labeled wild-type ALKBH5 (66 to 292 residues)(unknown origin) expressed in Escherichia coli BL21(DE3) using m6A-ssDNA as substrate assessed as dissociation constant incubated for 15 mins by MST assay
# Target sequence in this assay (Q6P6C2 whole entry, the tested form may be a part): as the sequence (Q6P6C2 whole entry, the tested form may be a part) above
# RNA demethylase ALKBH5 [4] = target: RNA demethylase ALKBH5 (Homo sapiens, UniProt Q6P6C2, Y139A); test: Binding affinity to NT-647-NHS fluorescent dye-labeled ALKBH5 Y139A mutant (unknown origin) expressed in Escherichia coli BL21(DE3) using m6A-ssDNA as substrate assessed as dissociation constant incubated for 15 mins by MST assay
# Chain of RNA demethylase ALKBH5 (Homo sapiens, UniProt Q6P6C2, Y139A) (Q6P6C2 2-394 Y139A limits assumed): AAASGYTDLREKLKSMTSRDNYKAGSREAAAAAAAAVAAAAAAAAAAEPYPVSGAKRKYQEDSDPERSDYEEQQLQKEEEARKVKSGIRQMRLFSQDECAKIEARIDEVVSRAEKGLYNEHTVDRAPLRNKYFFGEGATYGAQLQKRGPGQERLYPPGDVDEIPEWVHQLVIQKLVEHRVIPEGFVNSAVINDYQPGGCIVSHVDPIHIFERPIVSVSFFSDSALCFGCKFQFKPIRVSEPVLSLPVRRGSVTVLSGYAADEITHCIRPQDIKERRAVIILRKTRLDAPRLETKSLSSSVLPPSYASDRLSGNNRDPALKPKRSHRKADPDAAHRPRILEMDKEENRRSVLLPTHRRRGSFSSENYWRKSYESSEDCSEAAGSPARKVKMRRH
# [5] = target: T2, Alpha-ketoglutarate-dependent dioxygenase FTO; test: Inhibition of FTO (32 to 505 residues)(unknown origin) expressed in Escherichia coli BL21(DE3) using 5'-TAGACATTGCCATTCTCGATAGG(m6A)-TCCGGTCAAACCTAGACGAATTCCA-3' as substrate at 100 uM incubated for 2 hrs by restriction endonuclease digestion assay
# Target sequence in this assay (Q9C0B1 whole entry, looked up, the tested form may be a part): as the sequence (Q9C0B1 whole entry, the tested form may be a part) above
# RNA demethylase ALKBH5 [6] = target: T1, RNA demethylase ALKBH5; test: Inhibition of ALKBH5 in human MV4-11 cells assessed as increase in m6A mRNA methylation level at 20 uM incubated for 48 hrs by LC-MS/MS analysis; format: cell-based
# Target sequence in this assay (Q6P6C2 2-394 limits assumed): as the sequence (Q6P6C2 2-394 Y139A limits assumed) above, with A138Y counted along it
# MOLM-13 [7] = test: Antiproliferative activity against human MOLM-13 cells assessed as inhibition of cell proliferation incubated for 72 hrs by Cell Titer Luminescence assay; format: functional, cell-based; conditions: MOLM-13, 72 h
# HEK293 [8] = test: Antiproliferative activity against HEK293 cells assessed as inhibition of cell proliferation incubated for 72 hrs by Cell Titer Luminescence assay; format: functional, cell-based; conditions: Homo sapiens, HEK293, 72 h
# HUVEC [9] = test: Antiproliferative activity against HUVEC cells assessed as inhibition of cell proliferation incubated for 72 hrs by Cell Titer Luminescence assay; format: functional, cell-based; conditions: Homo sapiens
# MV4-11 [10] = test: Induction of apoptosis in human MV4-11 cells assessed as viable cells at 5 uM incubated for 48 hrs by Annexin V-FITC/PI staining based flow cytometry (reference value: 89.8 %); format: functional; conditions: read-out: Activity
# MV4-11 [11] = test: Induction of apoptosis in human MV4-11 cells assessed as early apoptosis cells at 5 uM incubated for 48 hrs by Annexin V-FITC/PI staining based flow cytometry (reference value: 1.24 %); format: functional
# MOLM-13 [12] = test: Induction of apoptosis in human MOLM-13 cells assessed as necrotic cells at 5 uM incubated for 48 hrs by Annexin V-FITC/PI staining based flow cytometry (reference value: 1.00 %); format: functional
# MOLM-13 [13] = test: Induction of apoptosis in human MOLM-13 cells assessed as early apoptosis cells at 10 uM incubated for 48 hrs by Annexin V-FITC/PI staining based flow cytometry (reference value: 2.72 %); format: functional
# MOLM-13 [14] = test: Downregulation of TACC3 mRNA level in human MOLM-13 cells assessed as half life of expression at 20 umol/L incubated for 24 hrs by qRT-PCR analysis (reference value: 2.87 hrs); format: functional, cell-based; conditions: dose 20.0 µmol/L
# MV4-11 [15] = test: Downregulation of TACC3 mRNA level in human MV4-11 cells assessed as half life of expression at 20 umol/L incubated for 24 hrs by qRT-PCR analysis (reference value: 2.63 hrs); format: functional, cell-based; conditions: dose 20.0 µmol/L
# MOLM-13 [16] = test: Downregulation of TACC3 mRNA level in human MOLM-13 cells at 5 to 10 uM incubated for 48 hrs by qRT-PCR analysis; format: functional, cell-based; conditions: dose 5-10 µM
# MV4-11 [17] = test: Downregulation of TACC3 mRNA level in human MV4-11 cells at 5 to 10 uM incubated for 48 hrs by qRT-PCR analysis; format: functional, cell-based; conditions: dose 5-10 µM
# MV4-11 [18] = test: Downregulation of c-Myc mRNA level in human MV4-11 cells at 5 to 10 uM incubated for 48 hrs by qRT-PCR analysis; format: functional, cell-based; conditions: dose 5-10 µM
# HEK293 [19] = test: Effect on TACC3 mRNA level in HEK293 cells at 5 to 10 uM incubated for 48 hrs by qRT-PCR analysis; format: functional, cell-based; conditions: Homo sapiens, dose 5-10 µM
# HEK293 [20] = test: Effect on TACC3 level in HEK293 cells upto 10 uM incubated for 48 hrs by Western blot analysis; format: functional, cell-based; conditions: Homo sapiens
# HUVEC [21] = test: Effect on TACC3 level in HUVEC cells upto 10 uM incubated for 48 hrs by Western blot analysis; format: functional, cell-based; conditions: Homo sapiens
# HEK293 [22] = test: Effect on c-Myc level in HEK293 cells upto 10 uM incubated for 48 hrs by Western blot analysis; format: functional, cell-based; conditions: Homo sapiens
# HUVEC [23] = test: Effect on c-Myc level in HUVEC cells upto 10 uM incubated for 48 hrs by Western blot analysis; format: functional, cell-based; conditions: Homo sapiens
# [24] = Half life in Sprague-Dawley rat at 10 mg/kg, po measured for 1 to 1440 mins by LC-MS/MS analysis; format: ADME, organism-based; conditions: in vivo, time 1-1440 min
# [25] = Cmax in Sprague-Dawley rat at 10 mg/kg, po measured for 1 to 1440 mins by LC-MS/MS analysis; format: ADME, organism-based; conditions: in vivo
# [26] = Apparent volume of distribution during terminal phase in Sprague-Dawley rat at 10 mg/kg, po measured for 1 to 1440 mins by LC-MS/MS analysis; format: ADME, organism-based; conditions: in vivo, time 1-1440 min, read-out: Vz/F
# [27] = Apparent oral clearance in Sprague-Dawley rat at 10 mg/kg, po measured for 1 to 1440 mins by LC-MS/MS analysis; format: ADME, organism-based; conditions: in vivo, time 1-1440 min
# [28] = MRT in Sprague-Dawley rat at 10 mg/kg, po measured for 1 to 1440 mins by LC-MS/MS analysis; format: ADME, organism-based; conditions: in vivo, time 1-1440 min
# MV4-11 [29] = test: Antitumor activity against human MV4-11 cells xenografted in nude mouse assessed as tumor growth inhibition at 40 mg/kg, ip treated every day for 14 days relative to control; format: functional; conditions: MV4-11, 336 h, time 14 day, read-out: TGI
# [30] = Toxicity in nude mouse xenografted with human MV4-11 cells assessed as liver damage at 10 to 40 mg/kg, ip treated every day for 14 days by H and E staining based analysis; format: organism-based; conditions: in vivo, 336 h, dose 10-40 mg/kg, time 14 day
# [31] = Toxicity in nude mouse xenografted with human MV4-11 cells assessed as spleen damage at 10 to 40 mg/kg, ip treated every day for 14 days by H and E staining based analysis; format: organism-based; conditions: in vivo, 336 h, dose 10-40 mg/kg, time 14 day
# MV4-11 [32] = test: Antitumor activity against human MV4-11 cells xenografted in nude mouse assessed as reduction in tumor weight at 10 to 40 mg/kg, ip treated every day for 14 days; format: functional, organism-based; conditions: dose 10-40 mg/kg, time 14.0 day
smiles,measurement,setting,value
O=C(OCc1ccc(C(F)(F)F)cc1)c1ccc(-c2cc3ncc(C(=O)c4c(O)ccc([N+](=O)[O-])c4O)cn3n2)cc1,IC50,RNA demethylase ALKBH5 [1],2.97 µM
same,IC50,[2],> 200 µM
same,Kd,RNA demethylase ALKBH5 [3],11.2 µM
same,Kd,RNA demethylase ALKBH5 [4],290 µM
same,inhibition,[5],inactive
same,inhibition,RNA demethylase ALKBH5 [6],Active
same,IC50,MOLM-13 [7],0.45 µM
same,IC50,HEK293 [8],97.4 µM
same,IC50,HUVEC [9],165 µM
same,viability at 5 µM,MV4-11 [10],59%
same,Activity,MV4-11 [11],1.44%
same,Activity,MOLM-13 [12],3.37%
same,Activity,MOLM-13 [13],2.88%
same,T1/2,MOLM-13 [14],2.06 h
same,T1/2,MV4-11 [15],1.96 h
same,Activity,MOLM-13 [16],Active
same,Activity,MV4-11 [17],Active
same,Activity,MV4-11 [18],Active
same,Activity,HEK293 [19],inactive
same,Activity,HEK293 [20],inactive
same,Activity,HUVEC [21],inactive
same,Activity,HEK293 [22],inactive
same,Activity,HUVEC [23],inactive
same,half-life,[24],2.47 h
same,Cmax,[25],2.34 µg/mL
same,Vd/F,[26],6.18 L/kg
same,CL/F,[27],1.73 L/h/kg
same,MRT,[28],2.8 h
same,inhibition in vivo at 40 mg/kg,MV4-11 [29],70.5%
same,Activity,[30],Non-Toxic
same,Activity,[31],Non-Toxic
same,Activity,MV4-11 [32],Active
